Test results taken from patent US20110130397A1, “PYRROLINONE COMPOUNDS AS INHIBITORS OF BACTERIAL PEPTIDYL TRNA HYDROLASE AND USES THEREOF” (priority 2006, published 2011).

First: Cc1ccc(C(=O)C2=C(O)C(=O)N(c3nc4ccc(S(C)(=O)=O)cc4s3)C2C2CCCCC2)o1 (stereo not shown) [Compound 179]
Second: CCCCCC1C(C(=O)c2ccc(C)o2)=C(O)C(=O)N1c1nc2ccc(S(C)(=O)=O)cc2s1 (stereo not shown) [Compound 181]
The melting point of the first is higher: 208 to 209 °C for the first, 171 to 173 °C for the second.

Compared with O=C(C1=C(O)C(=O)N(c2nc3ccc(F)cc3s2)C1c1ccc(F)cc1)c1nccs1 (stereo not shown) [Compound 438], O=C(C1=C(O)C(=O)N(c2nc3ccc(Cl)cc3s2)C1c1ccc(F)cc1)c1nccs1 (stereo not shown) [Compound 436] is lower in melting point: 320 to 321 °C for the first, 310 to 311 °C for the second.

First: Cc1ccc(C(=O)C2=C(O)C(=O)N(c3nc4c(Cl)cccc4s3)C2c2ccccc2C)o1 (stereo not shown) [Compound 628]
Second: COc1cccc(C2C(C(=O)c3ccc(C)o3)=C(O)C(=O)N2c2nc3c(Cl)cccc3s2)c1 (stereo not shown) [Compound 604]
The melting point of the first is lower: 244 to 245 °C for the first, 255 to 256 °C for the second.

Compared with CCOc1ccc2nc(N3C(=O)C(O)=C(C(=O)c4ccc(C)o4)C3c3cccc(O)c3)sc2c1 (stereo not shown) [Compound 223], CCOc1ccc2nc(N3C(=O)C(O)=C(C(=O)c4ccc(C)o4)C3c3cccc(C#N)c3)sc2c1 (stereo not shown) [Compound 220] is lower in melting point: 254 to 255 °C for the first, 226 to 227 °C for the second.

First: O=C(COc1ccccc1)C1=C(O)C(=O)N(c2nc3ccc(F)cc3s2)C1c1ccccc1F (stereo not shown) [Compound 448]
Second: COc1ccccc1CC(=O)C1=C(O)C(=O)N(c2nc3ccc(F)cc3s2)C1c1ccccc1F (stereo not shown) [Compound 482]
The melting point of the first is lower: 197 to 198 °C for the first, 207 to 208 °C for the second.

Compared with O=C(C1=C(O)C(=O)N(c2nc3ccc(Cl)cc3s2)C1c1ccccc1F)c1nccs1 (stereo not shown) [Compound 435], O=C(O)CCC(=O)C1=C(O)C(=O)N(c2nc3ccc(Cl)cc3s2)C1c1ccccc1F (stereo not shown) [Compound 568] is lower in melting point: 309 to 310 °C for the first, 258 to 260 °C for the second.

Compared with Cc1ccc(C(=O)C2=C(O)C(=O)N(c3nc4ccc([N+](=O)[O-])cc4s3)C2c2ccccc2F)o1 (stereo not shown) [Compound 152], COc1ccc2nc(N3C(=O)C(O)=C(C(=O)c4ccc(C)o4)C3c3ccccc3F)sc2c1 (stereo not shown) [Compound 151] is higher in melting point: 255 to 257 °C for the first, 268 to 269 °C for the second.

First: Cc1ccc(C(=O)C2=C(O)C(=O)N(c3ncnc4[nH]cnc34)C2c2ccccc2F)o1 (stereo not shown) [Compound 219]
Second: Cc1ccc(C(=O)C2=C(O)C(=O)N(c3nc(N4CCOCC4)c4nc[nH]c4n3)C2c2ccccc2F)o1 (stereo not shown) [Compound 285]
The melting point of the first is lower: 170 to 173 °C for the first, 297 to 299 °C for the second.

Compared with Cc1ccc(C(=O)C2=C(O)C(=O)N(c3nc4ccc(Cl)cc4s3)C2c2cccc(Oc3ccccc3)c2)o1 (stereo not shown) [Compound 473], Cc1ccc(C(=O)C2=C(O)C(=O)N(c3nc4ccc(Cl)cc4s3)C2c2ccc(Oc3ccccc3)cc2)o1 (stereo not shown) [Compound 467] is higher in melting point: 226 to 227 °C for the first, 238 to 239 °C for the second.

First: Cc1ccc(C(=O)C2=C(O)C(=O)N(c3ccc4ncsc4c3)C2c2ccc(F)cc2)o1 (stereo not shown) [Compound 565]
Second: Cc1ccc(C(=O)C2=C(O)C(=O)N(c3nc4ccc(F)cc4s3)C2c2ccc(C#N)cc2)o1 (stereo not shown) [Compound 621]
The melting point of the first is lower: 221 to 222 °C for the first, 255 to 256 °C for the second.

First: COCC(=O)C1=C(O)C(=O)N(c2nc3ccc(F)cc3s2)C1c1ccc(F)cc1 (stereo not shown) [Compound 444]
Second: CC(=O)C1=C(O)C(=O)N(c2nc3ccc(F)cc3s2)C1c1ccc(F)cc1 (stereo not shown) [Compound 423]
The melting point of the first is higher: 249 to 250 °C for the first, 238 to 239 °C for the second.

First: Cc1ccc(C(=O)C2=C(O)C(=O)N(c3nc(N4CCOCC4)c4nc[nH]c4n3)C2c2cccc([N+](=O)[O-])c2)o1 (stereo not shown) [Compound 284]
Second: Cc1ccc(C(=O)C2=C(O)C(=O)N(c3nc(N4CCOCC4)c4nc[nH]c4n3)C2c2ccccc2)o1 (stereo not shown) [Compound 283]
The melting point of the first is lower: 280 to 282 °C for the first, 291 to 292 °C for the second.

First: COc1cc(C2C(C(=O)c3ccc(C)o3)=C(O)C(=O)N2c2nc3c(Cl)cccc3s2)cc(OC)c1OC (stereo not shown) [Compound 607]
Second: Cc1ccc(C(=O)C2=C(O)C(=O)N(c3nc4c(Cl)cccc4s3)C2c2ccc(F)c(F)c2)o1 (stereo not shown) [Compound 463]
The melting point of the first is lower: 251 to 252 °C for the first, 269 to 270 °C for the second.

First: COc1ccccc1CC(=O)C1=C(O)C(=O)N(c2nc3c(Cl)cccc3s2)C1c1ccccc1F (stereo not shown) [Compound 483]
Second: COCCOc1ccc(CCC(=O)C2=C(O)C(=O)N(c3nc4c(Cl)cccc4s3)C2c2ccccc2F)cc1 (stereo not shown) [Compound 577]
The melting point of the first is higher: 224 to 226 °C for the first, 179 to 180 °C for the second.

Compared with Cc1ccc(C(=O)C2=C(O)C(=O)N(c3nc4ccc(Cl)cc4s3)C2c2ccc(-c3ccccc3)cc2)o1 (stereo not shown) [Compound 464], Cc1ccc(C(=O)C2=C(O)C(=O)N(c3nc4ccc(F)cc4s3)C2c2ccc3ccccc3c2)o1 (stereo not shown) [Compound 600] is higher in melting point: 244 to 245 °C for the first, 254 to 256 °C for the second.

First: Cc1ccc(C(=O)C2=C(O)C(=O)N(c3nc4ccc(F)cc4s3)C2c2cccc3ccccc23)o1 (stereo not shown) [Compound 618]
Second: Cc1ccc(C(=O)C2=C(O)C(=O)N(c3nc4ccc(F)cc4s3)C2c2cccc(F)c2F)o1 (stereo not shown) [Compound 624]
The melting point of the first is higher: 251 to 252 °C for the first, 239 to 240 °C for the second.

Compared with COCCOc1ccc(CCC(=O)C2=C(O)C(=O)N(c3nc4c(Cl)cccc4s3)C2c2ccc(F)cc2)cc1 (stereo not shown) [Compound 578], COCCOc1ccc(CCC(=O)C2=C(O)C(=O)N(c3nc4ccc(Cl)cc4s3)C2c2ccccc2F)cc1 (stereo not shown) [Compound 575] is higher in melting point: 182 to 183 °C for the first, 219 to 220 °C for the second.

First: CCOC(=O)CCC(=O)C1=C(O)C(=O)N(c2nc3ccc(F)cc3s2)C1c1ccccc1F (stereo not shown) [Compound 496]
Second: CCOC(=O)CCC(=O)C1=C(O)C(=O)N(c2nc3ccc(Cl)cc3s2)C1c1ccccc1F (stereo not shown) [Compound 493]
The melting point of the first is lower: 184 to 185 °C for the first, 206 to 207 °C for the second.

First: COC(=O)c1cccc(C2C(C(=O)c3ccc(C)o3)=C(O)C(=O)N2c2nc3ccc(OC)cc3s2)c1 (stereo not shown) [Compound 154]
Second: COC(=O)c1cccc(C2C(C(=O)c3ccc(C)o3)=C(O)C(=O)N2c2nc3cccnc3s2)c1 (stereo not shown) [Compound 249]
The melting point of the first is higher: 250 to 252 °C for the first, 220 to 221 °C for the second.

First: Cc1ccc(C(=O)C2=C(O)C(=O)N(c3nc4cccnc4s3)C2c2ccc3c(c2)OCO3)o1 (stereo not shown) [Compound 247]
Second: Cc1ccc(C(=O)C2=C(O)C(=O)N(c3nc4c(Cl)cccc4s3)C2c2ccc3c(c2)OCCO3)o1 (stereo not shown) [Compound 598]
The melting point of the first is lower: 248 to 249 °C for the first, 251 to 252 °C for the second.

Compared with CCOc1ccc2nc(N3C(=O)C(O)=C(C(=O)c4ccc(C)o4)C3c3ccc(O)c(O)c3)sc2c1 (stereo not shown) [Compound 221], CCOc1ccc2nc(N3C(=O)C(O)=C(C(=O)c4ccc(C)o4)C3c3cccc([N+](=O)[O-])c3)sc2c1 (stereo not shown) [Compound 184] is lower in melting point: 259 to 260 °C for the first, 256 to 257 °C for the second.

Compared with Cc1ccc(C(=O)C2=C(O)C(=O)N(c3nc4cc(Cl)ccc4o3)C2c2ccccc2F)o1 (stereo not shown) [Compound 160], Cc1ccc(C(=O)C2=C(O)C(=O)N(c3nc4ccccc4s3)C2c2ccccc2F)o1 (stereo not shown) [Compound 163] is higher in melting point: 244 to 245 °C for the first, 253 to 254 °C for the second.

Compared with CC(C)(C)C(=O)C1=C(O)C(=O)N(c2nc3ccc(Cl)cc3s2)C1c1ccc(F)cc1 (stereo not shown) [Compound 421], CC(=O)C1=C(O)C(=O)N(c2nc3ccc(Cl)cc3s2)C1c1ccc(F)cc1 (stereo not shown) [Compound 420] is lower in melting point: 239 to 240 °C for the first, 238 to 239 °C for the second.

First: Cc1ccc(C(=O)C2=C(O)C(=O)N(Cc3nc4ccccc4[nH]3)C2c2ccccc2F)o1 (stereo not shown) [Compound 566]
Second: Cc1ccc(C(=O)C2=C(O)C(=O)N(CCc3c[nH]c4ccccc34)C2c2ccccc2F)o1 (stereo not shown) [Compound 593]
The melting point of the first is lower: 91 to 93 °C for the first, 197 to 198 °C for the second.

First: O=C(COc1ccccc1Cl)C1=C(O)C(=O)N(c2nc3ccc(Cl)cc3s2)C1c1ccc(F)cc1 (stereo not shown) [Compound 458]
Second: COc1ccccc1CC(=O)C1=C(O)C(=O)N(c2nc3ccc(Cl)cc3s2)C1c1ccc(Cl)cc1 (stereo not shown) [Compound 487]
The melting point of the first is lower: 196 to 197 °C for the first, 247 to 248 °C for the second.

Compared with O=C(C1=C(O)C(=O)N(c2nc3ccc(Cl)cc3s2)C1c1ccc(F)cc1)C1CC1 (stereo not shown) [Compound 452], CCOC(=O)CCC(=O)C1=C(O)C(=O)N(c2nc3ccc(F)cc3s2)C1c1ccc(Cl)cc1 (stereo not shown) [Compound 498] is lower in melting point: 229 to 230 °C for the first, 219 to 220 °C for the second.

First: CCc1ccc2nc(N3C(=O)C(O)=C(C(=O)c4ccc(C)o4)C3c3ccc(OC)cc3)sc2c1 (stereo not shown) [Compound 132]
Second: CCc1ccc2nc(N3C(=O)C(O)=C(C(=O)c4ccc(C)o4)C3c3ccc(Cl)c(Cl)c3)sc2c1 (stereo not shown) [Compound 134]
The melting point of the first is lower: 192 to 194 °C for the first, 197 to 201 °C for the second.

First: COC1=C(C(C)=O)C(c2ccccc2F)N(c2nc3ccc(Cl)cc3s2)C1=O (stereo not shown) [Compound 430]
Second: O=C(C1=C(O)C(=O)N(c2nc3c(Cl)cccc3s2)C1c1ccccc1F)C1CC1 (stereo not shown) [Compound 456]
The melting point of the first is lower: 235 to 236 °C for the first, 253 to 254 °C for the second.

First: Cc1ccc(C(=O)C2=C(O)C(=O)N(c3ncnc4c3ncn4C3OC(CO)C(O)C3O)C2c2ccccc2F)o1 (stereo not shown) [Compound 217]
Second: Cc1ccc(C(=O)C2=C(O)C(=O)N(Cc3ccco3)C2c2ccccc2F)o1 (stereo not shown) [Compound 502]
The melting point of the first is lower: 106 to 109 °C for the first, 177 to 178 °C for the second.

First: CCOc1ccc2nc(N3C(=O)C(O)=C(C(=O)c4ccc(C)o4)C3c3cccs3)sc2c1 (stereo not shown) [Compound 257]
Second: CCCCOc1ccc(C2C(C(=O)c3ccc(C)o3)=C(O)C(=O)N2c2nc3ccc(OCC)cc3s2)cc1 (stereo not shown) [Compound 187]
The melting point of the first is higher: 235 to 236 °C for the first, 191 to 192 °C for the second.

Compared with Cc1ccc(C(=O)C2=C(O)C(=O)N(c3nc4ccc(F)cc4s3)C2c2ccc(F)c(F)c2)o1 (stereo not shown) [Compound 462], Cc1ccc(C(=O)C2=C(O)C(=O)N(c3nc4ccc(F)cc4s3)C2c2ccc(OCCO)cc2)o1 (stereo not shown) [Compound 478] is lower in melting point: 223 to 224 °C for the first, 134 to 135 °C for the second.

First: CCOC(=O)CCC(=O)C1=C(O)C(=O)N(c2nc3c(Cl)cccc3s2)C1c1ccccc1F (stereo not shown) [Compound 499]
Second: COc1ccccc1CC(=O)C1=C(O)C(=O)N(c2nc3ccc(F)cc3s2)C1c1ccc(Cl)cc1 (stereo not shown) [Compound 488]
The melting point of the first is lower: 180 to 182 °C for the first, 249 to 250 °C for the second.

First: Cc1ccc(C(=O)C2=C(O)C(=O)N(C(CO)CO)C2c2ccccc2F)o1 (stereo not shown) [Compound 434]
Second: Cc1ccc(C(=O)C2=C(O)C(=O)N(C3CCC(O)CC3)C2c2ccccc2F)o1 (stereo not shown) [Compound 433]
The melting point of the first is lower: 74 to 75 °C for the first, 204 to 206 °C for the second.

Compound Cc1ccc(C(=O)C2=C(O)C(=O)N(c3nc4ccc(Cl)cc4s3)C2c2ccc(C)o2)o1 (stereo not shown) [Compound 608] has a melting point of 235 to 236 °C.
